Experimental findings from patent publication US7485743B2, “Oligomeric ketone compounds” (BTG International Limited, priority 2004, dated 2009) are described below.

A short description of series [1]: Ketogenic effect after oral administration: β-hydroxybutyrate concentrations in rat plasma. The series is classed as in vivo, rat (male Sprague-Dawley). To be noted: 300 mg/kg po; for Maximum increase of plasma concentration of β-hydroxybutyrate: versus vehicle baseline. The procedure: Male Sprague-Dawley rats (weight range 200-250 g) were obtained from Charles River, Margate, Kent. The rats were group housed in polypropylene cages at a temperature of 21 ±4° C. and 55 ±20% humidity and on a standard light/dark cycle. Animals had free access to a standard pelleted rat diet and tap water at all times. Animals were accustomed to these conditions for at least one week before experimentation.
Animals were killed by CO2 and blood (approx, 5 ml) was collected by cardiac puncture at various times after dosing. Blood was collected into EDTA-coated plasma collection tubes (Sarstedt 5 ml K2E tubes) and kept on ice prior to centrifugation. Tubes were centrifuged in an Eppendorf 570R centrifuge at 4° C. for 5 minutes at 2500 rpm (1000 g). Following plasma separation, extreme care was taken to avoid contamination with red blood cells and samples were re-centrifuged as necessary. Plasma samples were initially frozen on dry ice and transferred to a −75° C. freezer until required for analysis.
Sodium DL-β-hydroxybutyrate (H-6501 Lot 111K2618) was obtained from Sigma. A stock solution of β-bydroxybutyrate (40 mM DL racemate equivalent to 20 mM D-isomer) was prepared in 0.9% saline solution, kept at 4° C. and used to generate appropriate dilutions for an assay standard curve.
Commercial clinical assay kits for the determination of D-β-hydroxybutyrate were obtained from Random Laboratories (Antrim, UK). Kits were obtained in two pack sizes (Ranbut RB1007: 10×10 ml and RB1008: 10×50 ml) but were otherwise identical. Each kit contained a standard solution of 1 mM D-β-hydroxybutyrate that was assayed every time to confirm the assay was performing correctly. The kit relies on measuring the appearance of NADH via the activity of β-hydroxybutyrate dehydrogenase measured as an increase of OD340 nm. An alkaline pH is necessary to drive the reaction equilibrium towards the production of NADH and acetoacetate.
The protocol supplied with the Ranbut kits was for a discrete (cuvette-based) spectrophotometric assay, so the protocol was modified for suitability with a 96-well microplate format using blank, flat-bottomed microplates (Greiner PS 655101 Lot 98 35 01). Assays were performed in triplicate using a sample volume of10 μl to each well for the standards and usually 20 μl for plasma samples (though this was varied for some experiments). Standard dilutions and samples were pipetted a single plate at a time and preincubated at 37° C. for 15 minutes in the sample compartment of a Molecular Devices VERSAMAX tunable microplate reader. The appropriate volume of assey reagent was reconstituted, according to instructions, using distilled water and preincubated at 37° C. for 15 minutes using a static water bath. The assay plate was ejected and the reaction started by adding rapidly 250 μl of reagent to each well (avoiding air bubbles). The plate was reloaded, mixed and then the change in OD340 nm followed in kinetic mode with a reading at every 15 seconds for a total of 2 minutes. The reaction rate was then determined from the OD increase over a suitable 1 minute period, after allowing a necessary period for the reaction rate to settle. The rate between 45 seconds and 105 seconds was used as the default measuring period, though occasionally a different period was used as necessary (e.g. if an aberrant reading was obtained at one of these time-points).
For analysis of spectrophotometric rate assays, linear regression analysis to the standard curve was used followed by interpolation of unknown values (GraphPad Prism 3.0) For comparison of treatment groups with vehicle, multiple 2-tailed T-tests were used and p<0.05 was taken to indicate statistical significance.

How the values of series [2] were obtained: Control animals received the appropriate vehicle (deionized water at 1 ml/kg) via the same route.

Consider `C[C@@H](O)CC(=O)[O-].[Na+]` [KTX 0101, sodium (R)-3-hydroxybutyrate], for which, in series [1], the “Time at which the maximum increase of plasma β-hydroxybutyrate was observed” value is recorded as 15 min, the “Time by which plasma β-hydroxybutyrate returned to control values” is given as no more than 2 h, the “Time until which plasma β-hydroxybutyrate plateaued at the maximum level” value came out at 30 min and the “Maximum increase of plasma concentration of β-hydroxybutyrate” value came to 0.4 mM. Besides, the “Level of plasma β-hydroxybutyrate at 1 h” value in series [1] (1 h after dosing) is “still significantly (P<0.05) elevated”.

With `CC(=O)CCOC(=O)C[C@@H](C)OC(=O)C[C@@H](C)OC(=O)C[C@@H](C)O` [KTX 0204, 2-keto-butan-4-ol ester of (R)-3-hydroxybutyrate triolide], in series [1], the “Time at which the maximum increase of plasma β-hydroxybutyrate was observed” value is 30 min, the “Time by which plasma β-hydroxybutyrate returned to control values” is no more than 1 h and the “Maximum increase of plasma concentration of β-hydroxybutyrate” value came to 0.25 mM. In series [2] (deionized water, dosing solution for gavage), the “Solubility in deionized water and nature of the solution” value was “mostly soluble in deionized water and produced a cloudy and stable solution”. Further, the Solubility in water entry in series [2] (isolated product (syrup)) is recorded as “water-soluble”.
